Laboratory results taken from PubChem BioAssay AID1419 (Emory University Molecular Libraries Screening Center, 2008).
Active and inactive are the calls of the source. No rule for the calls is given here.

Assay: blockers of an Epstein-Barr virus protein-peptide interaction – biochemical, fluorescence polarization, dose response (AID 1419)
Details: cell-free protein-peptide binding, 2 h; for fold change: measured here: P channel fold over control, at 54 µM

Structure (SMILES)	IC50	fold change
CCN(CC)c1ccc(/C=C(/C#N)c2nc3ccc(C)cc3[nH]2)c(OC(C)C)c1	1.51 µM	22
O=Cc1cnc(N2CCCCC2)s1	> 54 µM (inactive)	1.06
O=C(CSc1nc(-c2ccc(F)cc2)nc2c1Cc1ccccc1O2)Nc1cccc(C(=O)O)c1	1.63 µM	1.13
O=C(C1=NN(c2ccccc2)C2C(=O)N(c3ccccc3Cl)C(=O)C12)c1ccccc1 (configuration not stated)	6.16 µM	8.43
O=c1oc2c3c4c(cc2c(C(F)(F)F)c1CCN1CCOCC1)CCCN4CCC3	< 0.42 µM	35.9
CCOc1ccc(N/C=C/C(=O)c2ccc(OC)cc2)c([N+](=O)[O-])c1	4.13 µM	2.81
CCN(CC)c1ccc(/C=C/c2cc(-c3ccccc3)c3ccccc3n2)cc1	13.5 µM	80.7
COc1ccc2nc(N3CCCCC3)c(C#N)cc2c1	4.61 µM	3.52
CN(C)c1ccc(N=Cc2nc(-c3ccccc3)oc2O)cc1	6.01 µM	21.1
CCOC(=O)c1cc2n(c1N)-c1ccccc1C2=O	< 0.42 µM	104
Cc1nc(NC(=O)c2ccccc2)sc1-c1csc(Nc2ccc(C(=O)O)cc2)n1	2.31 µM	0.97
CC(=O)c1ccc(Nc2c3c(nc4ccccc24)CCCC3)cc1	> 54 µM (inactive)	0.95
COc1ccc(OC)c(/C=C2\SC(=S)N(Cc3cccnc3)C2=O)c1	6.71 µM	5.16
CCCN(CCC)S(=O)(=O)c1ccc(C(=O)OCCN2C(=O)c3cccc4c(N5CCOCC5)ccc(c34)C2=O)cc1	1.5 µM	96.6
Cc1cc(=O)oc2c3c4c(cc12)OCCN4CCC3	3.95 µM	3.5
Cc1ccc(CSc2nnc3c(n2)OC2(Nc4ccccc4-3)C(=O)Nc3ccc(F)cc32)cc1 (configuration not stated)	6.29 µM	16.9
N#Cc1c(SCC(N)=O)nc2c(c1-c1ccc(O)cc1)CCCC2	> 54 µM (inactive)	0.89
O=C(CCN1CCN(c2ccccc2)CC1)N/N=C/c1ccc(O)c(O)c1O	> 54 µM (inactive)	1.01
CCCn1c(=C(C#N)C#N)s/c(=C2\C=Cc3ccccc3N2CC)c1=O	> 54 µM (inactive)	1.52
CCC(=O)Nc1nc2n(n1)C(c1ccc(OC)cc1)C=C(c1ccccc1)N2 (configuration not stated)	5.14 µM	2.8
Cc1nn(C)cc1N1C(=O)c2cccc3c(N)ccc(c23)C1=O	< 0.42 µM	109

Structure (SMILES)	IC50	fold change
CC1(C)CC(=O)C2=C(C1)OC(N)=C(C#N)[C@@H]2c1ccccc1[N+](=O)[O-]	2.27 µM	4.78
CCOc1cc(/C=C(\C#N)c2nc(-c3cccs3)c(NC(C)=O)s2)ccc1O	3.62 µM	5.84
O=[N+]([O-])c1ccc(O)c(N=Cc2sc3ccccc3c2O)c1	> 54 µM (inactive)	1.45
CCSc1nc2sc3c(c2c(=O)[nH]1)CCCC3	> 54 µM (inactive)	1.05
O=c1cc(-c2ccccc2)nc2c(-c3ccccc3)c(C(F)(F)F)[nH]n12	> 54 µM (inactive)	1.02
O=[N+]([O-])c1ccc2[nH]c(O)c(N=NC(=S)Nc3cccnc3)c2c1	> 54 µM (inactive)	0.61
O=C1C(=Cc2ccc(Br)o2)C(=O)c2ccccc21	> 54 µM (inactive)	1.09
CCOC(=O)c1c(/N=C/c2c(O)n(-c3ccc(F)cc3)c(=S)[nH]c2=O)sc2c1CCCC2	22.8 µM	3.7
O=C(Nc1cccc(S(=O)(=O)NC2=NCCC2)c1)c1cc(-c2ccco2)nc2ccccc12	2.74 µM	1.11
CCCCCn1nc(-c2ccccc2)c2nc3ccccc3nc21	2.92 µM	33.5
O=c1cc(C(F)(F)F)c2cc3c4c(c2o1)CCCN4CCC3	< 0.42 µM	57.5
CCOc1ccccc1-c1c2cc(O)c(=O)cc-2oc2cc(O)c(O)cc12	> 54 µM (inactive)	232
COc1ccc2nc(N3CCCC3)c(C#N)cc2c1	< 0.42 µM	16.7
Nc1c(S(=O)(=O)c2ccccc2)c2nc3ccccc3nc2n1Cc1ccco1	> 54 µM (inactive)	1.32
CN1CCCc2cc3c(C(F)(F)F)cc(=O)oc3nc21	< 0.42 µM	18.4
CCCn1c(O)c(N=Nc2ccc3ccccc3n2)c2ccccc21	> 54 µM (inactive)	1.5
N=C1/C(=C\c2ccc(-c3ccc(C(=O)O)cc3)o2)C(=O)N=C2SC=C(c3ccccc3)N12	3.3 µM	1.28
O=c1nc2s/c(=C\c3ccc(-c4ccccc4[N+](=O)[O-])o3)c(=O)n2nc1-c1ccccc1	< 0.42 µM	9.05
N#CC1=C(N)OC2=C(CC/C2=C\c2ccccc2)C1c1ccccc1 (configuration not stated)	< 0.42 µM	6.24
CCOc1ccc(C2CC(c3c(O)c4ccccc4oc3=O)=NN2c2ccccc2)cc1OC (configuration not stated)	2.06 µM	49.3
